Test results published in patent US20020091086A1, “Peptides that block viral infectivity and methods of use thereof” (priority 1999, published 2002).
Where two headings read alike, the source gives them in different places. Marks after values point to notes of the source that are not given here. Peptide text beside a SMILES is read from it.

Tests used:
HIV-2 = HIV-2 infectivity assay in H9 cells, RT activity in supernatant; assay type: cell-based
HIV-1 [1] = settings: H9 cells; for Day 7 RT HIV-1 / Day 10 RT HIV-1: 100 μM; for HIV-1 infection, result in words: summary of Experiments 1-5
Description: (§1) In this example, the methods that were used to analyze the ability of various tripeptides to inhibit HIV-1, HIV-2, and SIV replication are disclosed. In Experiments 1 and 2, approximately 200,000 H9 cells were infected with HIV-1, HIV-2 or SIV at 25 TCID50 to test the inhibitory effect of the following synthesized tripeptides LKA-NH2, ILK-NH2, GPQ-NH2, GHK-NH2, GKG-NH2, ACQ-NH2, CQG-NH2, ARV-NH2, KAR-NH2, HKA-NH2, GAT-NH2, KAL-NH2, and GPG-NH2. Accordingly, the H9 cells were resuspended with or without the different peptides (approximately 100 μM) in 1 ml of RPMI 1640 medium supplemented with 10% (v/v) heat-inactivated fetal bovine serum (FBS), penicillin (100 u/ml), and streptomycin (100 u/ml), all available through GIBCO, and Polybrene (2 μg/ml), available through Sigma. Thereafter, viruses were added at 25 TCID50 in a volume of 20-30μl. Cells were incubated with virus at 37° C. for 1 hr then pelleted at 170×g for 7 minutes. The cells were then washed three times in RPMI medium without peptides at room temperature and pelleted at 170×g for 7 minutes, as above. After the final wash, the cells were resuspended in RPMI culture medium containing the peptides in a 24-well plate (Costar corporation) and were kept at 37° C. in 5% CO2 with humidity.
(§2) Culture supernatants were collected and analyzed when the medium was changed at 4, 7, 10, and 14 days post infection. To monitor the replication of virus, reverse transcriptase (RT) activity in the supernatants was assayed using a commercially available Lenti-RT activity kit. (Cavidi Tech, Uppsala, Sweden). The amount of RT was determined with the aid of a regression line of standards. The results are presented as absorbance values (OD) and higher absorbance indicates a higher protein concentration and greater viral infection. Syncytium formation was also monitored by microscopic examination.
In Experiment 3, (Table 4), approximately 200,000 H9 cells were infected with HIV-1, HIV-2 or SIV at 25 TCID50 to test the inhibitory effect of different concentrations of peptides GPG-NH2, GKG-NH2 and CQG-NH2 and combinations of these peptides (the indicated concentration corresponds to the concentration of each tripeptide). As above, H9 cells were resuspended with or without the different peptides at varying concentrations in 1 ml of RPMI 1640 medium supplemented with 10% (v/v) heat-inactivated fetal bovine serum (FBS), penicillin (100 u/ml), and streptomycin (100 u/ml), and Polybrene (2 μg/ml). Thereafter, viruses were added at 25 TCID50 in a volume of 20-30 μl. Cells were incubated with the indicated virus at 37° C. for 1 hr then pelleted at 170×g for 7 minutes. The cells were then washed three times in RPMI medium without peptides at room temperature and pelleted at 170×g for 7 minutes, as above. After the final wash, the cells were resuspended in RPMI culture medium containing the peptides in a 24-well plate (Costar corporation) and kept at 37° C. in 5% CO2 with humidity.
Culture supernatants were collected when the medium was changed at 4, 7, and 11 days post infection. As above, the replication of each virus was monitored by detecting reverse transcriptase (RT) activity in the supernatants using the Lenti-RT activity kit. (Cavidi Tech). The amount of RT was determined with the aid of a regression line of standards. The results are presented as absorbance values (OD) and higher absorbance indicates a higher protein concentration and greater viral infection.
In Experiment 4, (Table 5) approximately 200,000 H9 cells were infected with HIV-1 at 25 TCID50 to test the inhibitory effect of different concentrations of peptides GPG-NH2, GKG-NH2 and CQG-NH2 and combinations of these peptides (the indicated concentration corresponds to the total concentration of tripeptide).

HIV-1 [2] = settings: H9 cells; for HIV-1 Syncytia: 100 μM; for HIV-1 syncytia formation, result in words: summary of Experiments 1-2
Description: as §1, §2

SIV = SIV infectivity assay in H9 cells, RT activity in supernatant; assay type: cell-based
HIV-1 [3] = settings: Experiment 6; Day 7 HIV-1; 100 μM; HUT78 cells
Procedure: In experiment 6 (Table 7 and FIG. 1), approximately 200,000 HUT78 cells were infected with HIV-1 at 25 TCID50 to test the inhibitory effect of GPG-NH2, RQG-NH2, KQG-NH2, ALG-NH2, GVG-NH2, VGG-NH2, ASG-NH2, SLG-NH2, and SPT-NH2. The HUT cells were resuspended in lml of RPMI 1640 medium supplemented with 10% (v/v) heat-inactivated fetal bovine serum (FBS, GIBCO), penicillin (100 u/ml), streptomycin (100 u/ml) and Polybrene (Sigma, 2 μg/ml) with or without the presence of the different small peptides (100 μM) mentioned above. Thereafter, the HIV-1 virus was added at 25 TCID50 in a volume of 20 μl. Cells were incubated with the virus at 37° C. for one hour and, subsequently, the cells were pelleted at 170×g for seven minutes. The cells were then washed three times in RPMI medium without peptides at room temperature by cell sedimentation at 170×g for seven minutes, as above. After the final wash, the cells were resuspended in RPMI culture medium containing the peptides in 24-well plate (Costar corporation) and were kept at 37° C. in 5% CO2 with humidity. Culture supernatants were collected when medium was changed at day 4, 7, and 11 post infection and viral p24 production was monitored by using an HIV-1 p24 ELISA kit (Abbott Laboratories, North Chicago, USA).

| Molecule | Day 7 RT HIV-2 (HIV-2; Experiment 1, 100 μM) [OD] | Day 10 RT HIV-2 (HIV-2; Experiment 1, 100 μM) [OD] | Day 7 RT HIV-2 (HIV-2; Experiment 2, 100 μM) [OD] | Day 10 RT HIV-2 (HIV-2; Experiment 2, 100 μM) [OD] | Day 7 RT HIV-1 (HIV-1 [1]; Experiment 1) | Day 10 RT HIV-1 (HIV-1 [1]; Experiment 1) [OD] | Day 7 RT HIV-1 (HIV-1 [1]; Experiment 2) | Day 10 RT HIV-1 (HIV-1 [1]; Experiment 2) [OD] | HIV-1 Syncytia (HIV-1 [2]; Experiment 1) | HIV-1 Syncytia (HIV-1 [2]; Experiment 2) | Day 7 RT SIV (SIV; Experiment 1, 100 μM) [OD] | Day 10 RT SIV (SIV; Experiment 1, 100 μM) [OD] | Day 7 RT SIV (SIV; Experiment 2, 100 μM) [OD] | Day 10 RT SIV (SIV; Experiment 2, 100 μM) [OD] | p24 (HIV-1 [3]) [pg/mL] | reduction (%) (HIV-1 [3]) | HIV-1 infection, result in words (HIV-1 [1]) | HIV-1 syncytia formation, result in words (HIV-1 [2]) |
| --- | --- | --- | --- | --- | --- | --- | --- | --- | --- | --- | --- | --- | --- | --- | --- | --- | --- | --- |
| Lys-Ala-Arg [KAR-NH2] | 3.419 | 2.640 | 1.904 | 2.742 | 0.380 OD | 2.779 | 0.753 OD | 2.928 | pos | pos | 0.266 | 1.722 | 1.034 | 2.672 | – | – | – | – |
| CC(C)[C@H](N)C(=O)NCC(=O)NCC(N)=O [VGG-NH2, valyl-glycyl-glycine amide] (H-Val-Gly-Gly-NH2) | – | – | – | – | – | – | – | – | – | – | – | – | – | – | 10000 | 50 | – | – |
| Iso-Leu-Lys [ILK-NH2] | 3.467 | 2.791 | 1.692 | 2.557 | 0.365 OD | 2.033 | 0.581 OD | 2.950 | pos | pos | 3.180 | 2.255 | 0.515 | 2.632 | – | – | – | – |
| Gly-Ala-Thr [GAT-NH2] | 3.461 | 2.835 | 1.707 | 2.565 | 0.116 OD | 1.565 | 0.776 OD | 2.800 | pos | pos | 0.892 | 2.343 | 0.572 | 2.776 | – | – | failed to prevent infection | failed to prevent infection and HIV-1 syncytia formation |
| Lys-Ala-Leu [KAL-NH2] | 3.372 | 2.749 | 1.757 | 2.383 | 0.246 OD | 1.995 | 0.999 OD | 2.791 | pos | pos | 1.091 | 2.524 | 0.511 | 2.663 | – | – | failed to prevent infection | – |
| Gly-Pro-Gln [GPQ-NH2] | 3.692 | 2.734 | 1.511 | 2.382 | 0.204 OD | 1.965 | 0.884 OD | 2.848 | pos | pos | 1.542 | 2.176 | 0.574 | 2.319 | – | – | did not prevent HIV infection | failed to prevent infection and HIV-1 syncytia formation |
| Ala-Arg-Val [ARV-NH2] | 3.380 | 3.003 | 2.237 | 2.628 | 0.156 OD | 1.528 | 0.618 OD | 2.829 | pos | pos | 0.210 | 1.172 | 0.212 | 3.004 | – | – | failed to prevent infection | – |
| Ala-Cys-Gln [ACQ-NH2] | 3.418 | 2.753 | 1.661 | 2.505 | 0.117 OD | 0.904 | 0.606 OD | 2.831 | pos | pos | 1.241 | 2.746 | 0.612 | 2.606 | – | – | did not prevent HIV infection | – |
| His-Lys-Ala [HKA-NH2] | 3.408 | 2.669 | 1.678 | 2.560 | 0.312 OD | 2.546 | 1.081 OD | 2.794 | pos | pos | 0.416 | 2.520 | 0.455 | 2.623 | – | – | did not prevent HIV infection | – |
| Gly-His-Lys [GHK-NH2] | 3.522 | 2.931 | 1.936 | 2.418 | 0.289 OD | 2.151 | 0.829 OD | 3.013 | pos | pos | 0.097 | 2.384 | 0.396 | 2.394 | – | – | failed to prevent infection | failed to prevent infection and HIV-1 syncytia formation |
| Leu-Lys-Ala [LKA-NH2] | 3.649 | 2.769 | 1.689 | 2.637 | 0.568* OD | 2.429 | 0.894* OD | 2.989 | pos | pos | 3.577 | 2.452 | 0.724 | 2.797 | – | – | did not prevent HIV infection | – |
